Measured values: the kinase profiling compilation of Christmann-Franck et al. (2016)

Tests used:
Experiment in all cases: radiometric filter-binding kinase assay, Kinase HotSpot
Settings in all cases: compound 0.5 µM; ATP 10 µM
ABL1 (human) = ABL1 (human) (UniProt P00519)
AKT3 (human) = AKT3 (human) (UniProt Q9Y243)
[1] = test system: ARAF (human), P10398 [Y301D/Y302D]
AURKA (human) = AURKA (human) (UniProt O14965)
AURKC (human) = AURKC (human) (UniProt Q9UQB9)
BRAF (human) = BRAF (human) (UniProt P15056)
CAMK1G (human) = CAMK1G (human) (UniProt Q96NX5)
CDK6 CCND1 (human) = CDK6 CCND1 (human) (UniProt Q00534+P24385)
CDK6 CCND3 (human) = CDK6 CCND3 (human) (UniProt P30281+Q00534)
CHEK2 (human) = CHEK2 (human) (UniProt O96017)
CLK2 (human) = CLK2 (human) (UniProt P49760)
CSNK2A2 (human) = CSNK2A2 (human) (UniProt P19784)
DYRK1A (human) = DYRK1A (human) (UniProt Q13627)
DYRK3 (human) = DYRK3 (human) (UniProt O43781)
EPHA2 (human) = EPHA2 (human) (UniProt P29317)
EPHA6 (human) = EPHA6 (human) (UniProt Q9UF33)
GRK7 (human) = GRK7 (human) (UniProt Q8WTQ7)
HIPK3 (human) = HIPK3 (human) (UniProt Q9H422)
MELK (human) = MELK (human) (UniProt Q14680)
MKNK2 (human) = MKNK2 (human) (UniProt Q9HBH9)
MYLK (human) = MYLK (human) (UniProt Q15746)
MYO3B (human) = MYO3B (human) (UniProt Q8WXR4)
NTRK1 (human) = NTRK1 (human) (UniProt P04629)
OXSR1 (human) = OXSR1 (human) (UniProt O95747)
PAK6 (human) = PAK6 (human) (UniProt Q9NQU5)
PAK7 (human) = PAK7 (human) (UniProt Q9P286)
PIM1 (human) = PIM1 (human) (UniProt P11309)
PIM2 (human) = PIM2 (human) (UniProt Q9P1W9)
PRKACG (human) = PRKACG (human) (UniProt P22612)
SGK3 (human) = SGK3 (human) (UniProt Q96BR1)
STK10 (human) = STK10 (human) (UniProt O94804)
STK25 (human) = STK25 (human) (UniProt O00506)
STK38 (human) = STK38 (human) (UniProt Q15208)
TEK (human) = TEK (human) (UniProt Q02763)
TLK2 (human) = TLK2 (human) (UniProt Q86UE8)
ULK3 (human) = ULK3 (human) (UniProt Q6PHR2)
VRK1 (human) = VRK1 (human) (UniProt Q99986)
WNK3 (human) = WNK3 (human) (UniProt Q9BYP7)
EGFR (human) = EGFR (human) (UniProt P00533)
KDR (human) = KDR (human) (UniProt P35968)
PDGFRB (human) = PDGFRB (human) (UniProt P09619)

MYLK (human), sequence (Q15746 whole entry, looked up): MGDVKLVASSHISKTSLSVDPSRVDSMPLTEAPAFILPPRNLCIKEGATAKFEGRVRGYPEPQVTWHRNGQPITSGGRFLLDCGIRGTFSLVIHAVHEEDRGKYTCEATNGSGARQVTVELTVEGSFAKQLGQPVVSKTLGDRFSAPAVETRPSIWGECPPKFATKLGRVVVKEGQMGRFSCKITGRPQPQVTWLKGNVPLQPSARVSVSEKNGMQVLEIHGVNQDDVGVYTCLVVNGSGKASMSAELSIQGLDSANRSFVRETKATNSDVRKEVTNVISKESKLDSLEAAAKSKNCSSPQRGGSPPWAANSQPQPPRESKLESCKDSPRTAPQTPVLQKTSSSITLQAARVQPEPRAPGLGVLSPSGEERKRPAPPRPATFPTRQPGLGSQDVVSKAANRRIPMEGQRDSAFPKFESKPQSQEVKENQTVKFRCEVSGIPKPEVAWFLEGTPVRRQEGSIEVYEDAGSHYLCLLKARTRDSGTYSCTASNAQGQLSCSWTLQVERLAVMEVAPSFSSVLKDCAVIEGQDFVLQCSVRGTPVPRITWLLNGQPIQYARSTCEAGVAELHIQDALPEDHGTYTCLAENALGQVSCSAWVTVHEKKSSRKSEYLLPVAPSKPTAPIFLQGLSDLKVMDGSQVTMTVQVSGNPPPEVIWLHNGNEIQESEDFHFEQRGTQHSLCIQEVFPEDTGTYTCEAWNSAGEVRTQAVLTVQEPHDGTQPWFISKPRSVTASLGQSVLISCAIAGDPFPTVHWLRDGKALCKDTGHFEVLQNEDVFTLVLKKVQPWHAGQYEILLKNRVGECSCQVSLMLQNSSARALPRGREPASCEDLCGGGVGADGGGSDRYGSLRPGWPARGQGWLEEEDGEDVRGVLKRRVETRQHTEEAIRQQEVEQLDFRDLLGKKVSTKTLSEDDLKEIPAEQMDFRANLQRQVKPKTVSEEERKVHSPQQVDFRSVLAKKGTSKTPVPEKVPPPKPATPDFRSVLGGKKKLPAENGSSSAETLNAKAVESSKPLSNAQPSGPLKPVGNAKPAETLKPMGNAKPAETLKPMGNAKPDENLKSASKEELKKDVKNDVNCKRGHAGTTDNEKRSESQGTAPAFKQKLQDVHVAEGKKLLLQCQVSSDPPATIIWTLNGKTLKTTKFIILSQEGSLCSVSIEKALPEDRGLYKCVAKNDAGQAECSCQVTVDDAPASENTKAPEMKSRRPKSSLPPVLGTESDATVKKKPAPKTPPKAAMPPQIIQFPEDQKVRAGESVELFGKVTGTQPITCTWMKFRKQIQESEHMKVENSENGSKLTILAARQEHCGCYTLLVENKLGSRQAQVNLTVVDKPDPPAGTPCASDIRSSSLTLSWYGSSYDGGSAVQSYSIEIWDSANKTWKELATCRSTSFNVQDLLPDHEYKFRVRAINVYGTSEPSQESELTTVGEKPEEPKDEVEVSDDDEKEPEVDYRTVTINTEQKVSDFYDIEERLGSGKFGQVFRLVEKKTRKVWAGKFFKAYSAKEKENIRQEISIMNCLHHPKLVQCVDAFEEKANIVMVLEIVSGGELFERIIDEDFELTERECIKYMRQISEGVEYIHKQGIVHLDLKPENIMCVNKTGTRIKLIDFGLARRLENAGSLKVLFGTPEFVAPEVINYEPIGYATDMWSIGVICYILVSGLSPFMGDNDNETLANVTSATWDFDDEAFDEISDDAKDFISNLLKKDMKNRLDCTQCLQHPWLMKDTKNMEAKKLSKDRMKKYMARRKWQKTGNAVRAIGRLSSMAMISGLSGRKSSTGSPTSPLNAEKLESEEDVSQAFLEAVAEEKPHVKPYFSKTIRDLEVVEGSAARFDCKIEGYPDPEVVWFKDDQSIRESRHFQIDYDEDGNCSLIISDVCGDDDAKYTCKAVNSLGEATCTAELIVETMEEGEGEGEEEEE
STK10 (human), sequence (O94804 whole entry, looked up): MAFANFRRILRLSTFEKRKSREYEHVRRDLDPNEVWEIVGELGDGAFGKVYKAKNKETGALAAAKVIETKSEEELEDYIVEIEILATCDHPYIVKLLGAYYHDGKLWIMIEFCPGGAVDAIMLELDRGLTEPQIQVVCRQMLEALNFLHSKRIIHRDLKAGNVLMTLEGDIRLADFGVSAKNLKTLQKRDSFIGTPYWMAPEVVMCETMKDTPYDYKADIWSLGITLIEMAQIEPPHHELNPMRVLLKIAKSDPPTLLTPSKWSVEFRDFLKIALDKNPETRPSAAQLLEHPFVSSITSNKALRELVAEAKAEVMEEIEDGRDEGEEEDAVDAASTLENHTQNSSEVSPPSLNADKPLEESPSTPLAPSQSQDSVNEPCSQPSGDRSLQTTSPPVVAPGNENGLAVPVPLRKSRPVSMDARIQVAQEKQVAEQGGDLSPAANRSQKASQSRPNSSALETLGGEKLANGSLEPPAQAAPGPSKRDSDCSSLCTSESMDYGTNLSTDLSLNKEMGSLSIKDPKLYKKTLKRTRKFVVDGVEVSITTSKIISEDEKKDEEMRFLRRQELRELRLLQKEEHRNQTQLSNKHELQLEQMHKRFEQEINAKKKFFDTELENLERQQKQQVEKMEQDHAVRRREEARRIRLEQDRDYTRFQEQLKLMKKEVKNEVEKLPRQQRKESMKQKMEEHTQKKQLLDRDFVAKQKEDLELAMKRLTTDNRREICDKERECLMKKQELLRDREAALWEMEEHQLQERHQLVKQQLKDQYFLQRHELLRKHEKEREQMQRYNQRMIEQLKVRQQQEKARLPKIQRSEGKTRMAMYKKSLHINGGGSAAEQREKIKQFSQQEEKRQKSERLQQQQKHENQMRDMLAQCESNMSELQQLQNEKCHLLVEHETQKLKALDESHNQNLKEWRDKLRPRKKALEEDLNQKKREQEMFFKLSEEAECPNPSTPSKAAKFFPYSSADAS
BRAF (human), sequence (P15056 whole entry, looked up): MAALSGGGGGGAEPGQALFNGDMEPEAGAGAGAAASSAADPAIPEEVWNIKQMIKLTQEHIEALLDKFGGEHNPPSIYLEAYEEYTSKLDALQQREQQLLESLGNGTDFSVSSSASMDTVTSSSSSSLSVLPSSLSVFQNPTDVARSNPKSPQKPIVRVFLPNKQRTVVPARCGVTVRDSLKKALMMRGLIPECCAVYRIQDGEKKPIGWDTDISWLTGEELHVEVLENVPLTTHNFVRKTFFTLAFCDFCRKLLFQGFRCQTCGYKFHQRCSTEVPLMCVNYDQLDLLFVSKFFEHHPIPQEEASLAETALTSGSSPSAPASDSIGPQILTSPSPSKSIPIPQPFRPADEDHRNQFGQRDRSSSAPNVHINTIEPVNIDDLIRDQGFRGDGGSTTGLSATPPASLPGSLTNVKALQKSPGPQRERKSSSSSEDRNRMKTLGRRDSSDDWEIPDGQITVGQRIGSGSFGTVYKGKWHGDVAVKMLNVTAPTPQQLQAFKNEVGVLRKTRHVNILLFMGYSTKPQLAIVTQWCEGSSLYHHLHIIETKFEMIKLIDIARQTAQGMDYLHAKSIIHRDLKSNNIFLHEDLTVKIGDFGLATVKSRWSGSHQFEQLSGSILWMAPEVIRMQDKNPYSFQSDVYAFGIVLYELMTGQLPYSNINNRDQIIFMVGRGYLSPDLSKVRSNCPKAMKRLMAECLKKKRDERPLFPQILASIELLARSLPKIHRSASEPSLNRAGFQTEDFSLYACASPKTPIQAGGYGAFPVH
MKNK2 (human), sequence (Q9HBH9 whole entry, looked up): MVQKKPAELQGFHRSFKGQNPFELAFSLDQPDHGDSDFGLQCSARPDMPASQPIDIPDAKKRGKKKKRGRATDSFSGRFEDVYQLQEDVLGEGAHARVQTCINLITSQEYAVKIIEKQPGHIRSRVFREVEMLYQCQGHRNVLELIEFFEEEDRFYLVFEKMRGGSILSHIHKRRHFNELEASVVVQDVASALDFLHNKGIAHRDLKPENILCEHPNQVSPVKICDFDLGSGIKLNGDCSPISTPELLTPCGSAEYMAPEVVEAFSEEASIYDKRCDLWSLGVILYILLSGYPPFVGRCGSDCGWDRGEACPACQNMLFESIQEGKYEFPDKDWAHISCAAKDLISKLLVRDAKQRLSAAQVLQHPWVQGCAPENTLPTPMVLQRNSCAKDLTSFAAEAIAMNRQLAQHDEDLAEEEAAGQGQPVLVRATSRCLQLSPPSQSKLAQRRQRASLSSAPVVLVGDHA
PIM1 (human), sequence (P11309 whole entry, looked up): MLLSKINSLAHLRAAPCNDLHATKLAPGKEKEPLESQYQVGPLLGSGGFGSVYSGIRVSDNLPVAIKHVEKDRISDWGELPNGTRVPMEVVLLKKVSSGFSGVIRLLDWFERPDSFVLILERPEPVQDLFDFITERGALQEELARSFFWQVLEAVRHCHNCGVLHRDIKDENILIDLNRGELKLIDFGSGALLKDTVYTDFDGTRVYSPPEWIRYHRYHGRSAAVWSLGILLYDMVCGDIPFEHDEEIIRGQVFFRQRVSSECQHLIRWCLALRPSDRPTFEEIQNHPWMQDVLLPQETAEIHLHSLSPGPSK
MELK (human), sequence (Q14680 whole entry, looked up): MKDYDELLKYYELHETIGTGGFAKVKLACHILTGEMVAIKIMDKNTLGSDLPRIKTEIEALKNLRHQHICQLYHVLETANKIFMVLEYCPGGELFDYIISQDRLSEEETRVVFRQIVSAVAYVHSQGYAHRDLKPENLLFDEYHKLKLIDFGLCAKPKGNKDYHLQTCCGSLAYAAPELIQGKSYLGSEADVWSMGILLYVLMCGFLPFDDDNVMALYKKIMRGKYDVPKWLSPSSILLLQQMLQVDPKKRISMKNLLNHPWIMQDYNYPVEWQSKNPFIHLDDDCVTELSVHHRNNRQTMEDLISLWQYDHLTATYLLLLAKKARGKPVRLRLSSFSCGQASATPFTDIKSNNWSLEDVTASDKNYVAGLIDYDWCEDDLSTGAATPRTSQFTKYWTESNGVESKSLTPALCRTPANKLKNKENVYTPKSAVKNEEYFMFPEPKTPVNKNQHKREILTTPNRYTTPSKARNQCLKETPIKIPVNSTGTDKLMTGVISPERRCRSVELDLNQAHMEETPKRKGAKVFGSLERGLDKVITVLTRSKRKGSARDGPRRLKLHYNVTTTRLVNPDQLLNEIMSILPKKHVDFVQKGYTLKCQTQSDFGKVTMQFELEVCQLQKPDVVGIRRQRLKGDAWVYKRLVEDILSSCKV

With Clc1ccc(Nc2nnc(Cc3ccncc3)c3ccccc23)cc1 the residual activity (ABL1 (human)) was 96.5%, the residual activity (AKT3 (human)) was 89.9% and the residual activity [1] was 97.6%. The residual activity (AURKA (human)) was 79%, the residual activity (AURKC (human)) was 87% and the residual activity (BRAF (human)) was 92.2%. It also gave a residual activity (CAMK1G (human)) of 107%, a residual activity (CDK6 CCND1 (human)) of 93% and a residual activity (CDK6 CCND3 (human)) of 125%. The residual activity (CHEK2 (human)) was 98.5%, the residual activity (CLK2 (human)) was 87.6% and the residual activity (CSNK2A2 (human)) was 106%. It also gave a residual activity (DYRK1A (human)) of 102%, a residual activity (DYRK3 (human)) of 95.9% and a residual activity (EPHA2 (human)) of 92.5%. The residual activity (EPHA6 (human)) was 101%, the residual activity (GRK7 (human)) was 92.2% and the residual activity (HIPK3 (human)) was 96.5%. For the same compound, the residual activity (MELK (human)) was 83.7%, the residual activity (MKNK2 (human)) was 101% and the residual activity (MYLK (human)) was 97.5%. It also gave a residual activity (MYO3B (human)) of 102%, a residual activity (NTRK1 (human)) of 98.7% and a residual activity (OXSR1 (human)) of 101%. For the same compound, the residual activity (PAK6 (human)) was 107%, the residual activity (PAK7 (human)) was 97.1% and the residual activity (PIM1 (human)) was 102%. It also gave a residual activity (PIM2 (human)) of 95.8%, a residual activity (PRKACG (human)) of 116% and a residual activity (SGK3 (human)) of 99.2%. The residual activity (STK10 (human)) was 96.3%, the residual activity (STK25 (human)) was 94% and the residual activity (STK38 (human)) was 100%. It also gave a residual activity (TEK (human)) of 97.5%, a residual activity (TLK2 (human)) of 102% and a residual activity (ULK3 (human)) of 101%. The residual activity (VRK1 (human)) was 109% and the residual activity (WNK3 (human)) was 99.1%.
With COc1ccc(-c2cnc3c(-c4ccsc4)cnn3c2)cc1 the residual activity (ABL1 (human)) was 72.9%, the residual activity (AKT3 (human)) was 95.4% and the residual activity (AURKA (human)) was 68%. For the same compound, the residual activity (AURKC (human)) was 75.3%, the residual activity (BRAF (human)) was 85.9% and the residual activity (CAMK1G (human)) was 100%. The residual activity (CDK6 CCND1 (human)) was 53.4%, the residual activity (CDK6 CCND3 (human)) was 33.4% and the residual activity (CHEK2 (human)) was 89.1%. It also gave a residual activity (CLK2 (human)) of 83.8%, a residual activity (CSNK2A2 (human)) of 87.3% and a residual activity (DYRK1A (human)) of 69.7%. For the same compound, the residual activity (DYRK3 (human)) was 89.9%, the residual activity (EGFR (human)) was 92.3% and the residual activity (EPHA2 (human)) was 95.9%. It also gave a residual activity (EPHA6 (human)) of 85.1%, a residual activity (GRK7 (human)) of 99.9% and a residual activity (HIPK3 (human)) of 103%. For the same compound, the residual activity (KDR (human)) was 79.8%, the residual activity (MELK (human)) was 73.6% and the residual activity (MKNK2 (human)) was 37.5%. For the same compound, the residual activity (MYLK (human)) was 102%, the residual activity (MYO3B (human)) was 84% and the residual activity (NTRK1 (human)) was 93.2%. The residual activity (OXSR1 (human)) was 90.3%, the residual activity (PAK7 (human)) was 78.1% and the residual activity (PDGFRB (human)) was 63.4%. It also gave a residual activity (PIM1 (human)) of 97.5%, a residual activity (PIM2 (human)) of 105% and a residual activity (PRKACG (human)) of 93.9%. It also gave a residual activity (SGK3 (human)) of 99.6%, a residual activity (STK10 (human)) of 81.6% and a residual activity (STK25 (human)) of 102%. It also gave a residual activity (STK38 (human)) of 102%, a residual activity (TEK (human)) of 99.1% and a residual activity (TLK2 (human)) of 96.2%. The residual activity (ULK3 (human)) was 79.4%, the residual activity (VRK1 (human)) was 105% and the residual activity (WNK3 (human)) was 92.7%.
CSc1nc(-c2ccc(F)cc2)c(-c2ccnc(NC(C)c3ccccc3)c2)[nH]1 (stereo unspecified) showed a residual activity (ABL1 (human)) of 103%, a residual activity (AKT3 (human)) of 91.5% and a residual activity [1] of 99%. For the same compound, the residual activity (AURKA (human)) was 99.9%, the residual activity (AURKC (human)) was 100% and the residual activity (BRAF (human)) was 91.8%. For the same compound, the residual activity (CAMK1G (human)) was 98.3%, the residual activity (CDK6 CCND1 (human)) was 90.9% and the residual activity (CDK6 CCND3 (human)) was 98.3%. The residual activity (CHEK2 (human)) was 94.2%, the residual activity (CLK2 (human)) was 102% and the residual activity (CSNK2A2 (human)) was 88.8%. The residual activity (DYRK1A (human)) was 97.9%, the residual activity (DYRK3 (human)) was 94.2% and the residual activity (EGFR (human)) was 87.1%. For the same compound, the residual activity (EPHA2 (human)) was 98.8%, the residual activity (EPHA6 (human)) was 75.8% and the residual activity (GRK7 (human)) was 100%. For the same compound, the residual activity (HIPK3 (human)) was 101%, the residual activity (KDR (human)) was 83.5% and the residual activity (MELK (human)) was 94.2%. The residual activity (MKNK2 (human)) was 105%, the residual activity (MYLK (human)) was 100% and the residual activity (MYO3B (human)) was 100%. The residual activity (NTRK1 (human)) was 91.2%, the residual activity (OXSR1 (human)) was 88.2% and the residual activity (PAK6 (human)) was 93.5%. It also gave a residual activity (PAK7 (human)) of 85.3%, a residual activity (PDGFRB (human)) of 97.6% and a residual activity (PIM1 (human)) of 91.8%. It also gave a residual activity (PIM2 (human)) of 87.9%, a residual activity (PRKACG (human)) of 115% and a residual activity (SGK3 (human)) of 103%. The residual activity (STK10 (human)) was 86.8%, the residual activity (STK25 (human)) was 118% and the residual activity (STK38 (human)) was 104%. It also gave a residual activity (TEK (human)) of 90.5%, a residual activity (TLK2 (human)) of 106% and a residual activity (ULK3 (human)) of 85.3%. The residual activity (VRK1 (human)) was 94.1% and the residual activity (WNK3 (human)) was 97.6%.
O=C(Nc1ccc(Cl)cc1)c1ccccc1NCc1ccncc1 gave a residual activity (ABL1 (human)) of 99.7%, a residual activity (AKT3 (human)) of 97.9% and a residual activity [1] of 91.4%. For the same compound, the residual activity (AURKA (human)) was 84.4%, the residual activity (AURKC (human)) was 93.4% and the residual activity (BRAF (human)) was 90%. It also gave a residual activity (CAMK1G (human)) of 101%, a residual activity (CDK6 CCND1 (human)) of 93.4% and a residual activity (CDK6 CCND3 (human)) of 86.5%. For the same compound, the residual activity (CHEK2 (human)) was 94.5%, the residual activity (CLK2 (human)) was 91.8% and the residual activity (CSNK2A2 (human)) was 98.3%. For the same compound, the residual activity (DYRK1A (human)) was 97.1%, the residual activity (DYRK3 (human)) was 104% and the residual activity (EPHA2 (human)) was 101%. For the same compound, the residual activity (EPHA6 (human)) was 89.8%, the residual activity (GRK7 (human)) was 96.2% and the residual activity (HIPK3 (human)) was 98.7%. For the same compound, the residual activity (KDR (human)) was 28.2%, the residual activity (MELK (human)) was 92.3% and the residual activity (MKNK2 (human)) was 82.3%. It also gave a residual activity (MYLK (human)) of 105%, a residual activity (MYO3B (human)) of 82% and a residual activity (NTRK1 (human)) of 95.5%. For the same compound, the residual activity (OXSR1 (human)) was 96.8%, the residual activity (PAK6 (human)) was 101% and the residual activity (PAK7 (human)) was 79.4%. The residual activity (PDGFRB (human)) was 45%, the residual activity (PIM1 (human)) was 98.9% and the residual activity (PIM2 (human)) was 99.5%. The residual activity (PRKACG (human)) was 87.4%, the residual activity (SGK3 (human)) was 92.5% and the residual activity (STK10 (human)) was 81.8%. It also gave a residual activity (STK25 (human)) of 91.6%, a residual activity (STK38 (human)) of 97.5% and a residual activity (TEK (human)) of 92.4%. It also gave a residual activity (TLK2 (human)) of 97.3%, a residual activity (ULK3 (human)) of 84.7% and a residual activity (VRK1 (human)) of 104%. It also gave a residual activity (WNK3 (human)) of 92.9%.
For CS(=O)c1ccc(-c2nc(-c3ccc(F)cc3)c(-c3ccncc3)[nH]2)cc1 (stereo unspecified), the residual activity (ABL1 (human)) was 97%, the residual activity (AKT3 (human)) was 102% and the residual activity [1] was 42.7%. It also gave a residual activity (AURKA (human)) of 99.5%, a residual activity (AURKC (human)) of 98.5% and a residual activity (BRAF (human)) of 78.8%. The residual activity (CAMK1G (human)) was 99.3%, the residual activity (CDK6 CCND1 (human)) was 100% and the residual activity (CDK6 CCND3 (human)) was 94.6%. For the same compound, the residual activity (CHEK2 (human)) was 99.6%, the residual activity (CLK2 (human)) was 108% and the residual activity (DYRK1A (human)) was 95.6%. For the same compound, the residual activity (DYRK3 (human)) was 99%, the residual activity (EPHA2 (human)) was 94.8% and the residual activity (EPHA6 (human)) was 57.2%. For the same compound, the residual activity (GRK7 (human)) was 107%, the residual activity (HIPK3 (human)) was 103% and the residual activity (KDR (human)) was 99.2%. It also gave a residual activity (MELK (human)) of 102%, a residual activity (MKNK2 (human)) of 94.4% and a residual activity (MYLK (human)) of 101%. For the same compound, the residual activity (MYO3B (human)) was 104%, the residual activity (NTRK1 (human)) was 100% and the residual activity (OXSR1 (human)) was 102%. It also gave a residual activity (PAK6 (human)) of 76.7%, a residual activity (PAK7 (human)) of 104% and a residual activity (PDGFRB (human)) of 103%. For the same compound, the residual activity (PIM1 (human)) was 103%, the residual activity (PIM2 (human)) was 104% and the residual activity (PRKACG (human)) was 107%. It also gave a residual activity (SGK3 (human)) of 101%, a residual activity (STK10 (human)) of 89.1% and a residual activity (STK25 (human)) of 111%. It also gave a residual activity (STK38 (human)) of 105%, a residual activity (TEK (human)) of 94.5% and a residual activity (TLK2 (human)) of 96.5%. The residual activity (ULK3 (human)) was 83.2% and the residual activity (WNK3 (human)) was 99%.
